Experimental data reported in PubChem BioAssay AID1259407 (Chemical Carcinogenesis Research Information System (CCRIS), 2018).
Active and inactive are the calls of the source. No rule for the calls is given here.

Tested on: CCRIS mutagenicity, Ames/micronucleus/aberration tests
Experiment: CCRIS mutagenicity studies
[1] = Test System: AMES SALMONELLA TYPHIMURIUM, Strain/Indicator: TA100, Metabolic Activation: NONE, Method: PREINCUBATION

C=C(C)C(=O)OCCOC(=O)C(=C)C
mutagenic call (Test System: AMES SALMONELLA TYPHIMURIUM, Strain/Indicator: TA98, Metabolic Activation: HAMSTER, LIVER, S-9, AROCLOR 1254, Method: STANDARD PLATE): inactive; negative
mutagenic call (Test System: AMES SALMONELLA TYPHIMURIUM, Strain/Indicator: TA98, Metabolic Activation: NONE, Method: STANDARD PLATE): inactive; negative
mutagenic call (Test System: AMES SALMONELLA TYPHIMURIUM, Strain/Indicator: TA98, Metabolic Activation: RAT, LIVER, AROCLOR 1254, Method: STANDARD PLATE): inactive; negative
mutagenic call (Test System: AMES SALMONELLA TYPHIMURIUM, Strain/Indicator: TA98, Metabolic Activation: RAT, LIVER, S-9, AROCLOR 1254, Method: STANDARD PLATE): inactive; negative
mutagenic call (Test System: AMES SALMONELLA TYPHIMURIUM, Strain/Indicator: TA98, Metabolic Activation: RAT, LIVER, S-9, SODIUM PHENOBARBITAL, Method: STANDARD PLATE): inactive; negative
mutagenic call (Test System: AMES SALMONELLA TYPHIMURIUM, Strain/Indicator: TA100, Metabolic Activation: HAMSTER, LIVER, S-9, AROCLOR 1254, Method: STANDARD PLATE): inactive; negative
mutagenic call (Test System: AMES SALMONELLA TYPHIMURIUM, Strain/Indicator: TA100, Metabolic Activation: NONE, Method: STANDARD PLATE): inactive; negative
mutagenic call (Test System: AMES SALMONELLA TYPHIMURIUM, Strain/Indicator: TA100, Metabolic Activation: RAT, LIVER, S-9, AROCLOR 1254, Method: STANDARD PLATE): inactive; negative
mutagenic call (Test System: AMES SALMONELLA TYPHIMURIUM, Strain/Indicator: TA100, Metabolic Activation: RAT, LIVER, S-9, SODIUM PHENOBARBITAL, Method: STANDARD PLATE): inactive; negative
mutagenic call (Test System: AMES SALMONELLA TYPHIMURIUM, Strain/Indicator: TA1535, Metabolic Activation: HAMSTER, LIVER, S-9, AROCLOR 1254, Method: STANDARD PLATE): inactive; negative
mutagenic call (Test System: AMES SALMONELLA TYPHIMURIUM, Strain/Indicator: TA1535, Metabolic Activation: NONE, Method: STANDARD PLATE): inactive; negative
mutagenic call (Test System: AMES SALMONELLA TYPHIMURIUM, Strain/Indicator: TA1535, Metabolic Activation: RAT, LIVER, S-9, AROCLOR 1254, Method: STANDARD PLATE): inactive; negative
mutagenic call (Test System: AMES SALMONELLA TYPHIMURIUM, Strain/Indicator: TA1535, Metabolic Activation: RAT, LIVER, S-9, SODIUM PHENOBARBITAL, Method: STANDARD PLATE): inactive; negative
mutagenic call (Test System: AMES SALMONELLA TYPHIMURIUM, Strain/Indicator: TA1537, Metabolic Activation: HAMSTER, LIVER, S-9, AROCLOR 1254, Method: STANDARD PLATE): inactive; negative
mutagenic call (Test System: AMES SALMONELLA TYPHIMURIUM, Strain/Indicator: TA1537, Metabolic Activation: NONE, Method: STANDARD PLATE): inactive; negative
mutagenic call (Test System: AMES SALMONELLA TYPHIMURIUM, Strain/Indicator: TA1537, Metabolic Activation: RAT, LIVER, S-9, AROCLOR 1254, Method: STANDARD PLATE): inactive; negative
mutagenic call (Test System: AMES SALMONELLA TYPHIMURIUM, Strain/Indicator: TA1537, Metabolic Activation: RAT, LIVER, S-9, SODIUM PHENOBARBITAL, Method: STANDARD PLATE): inactive; negative
mutagenic call (Test System: AMES SALMONELLA TYPHIMURIUM, Strain/Indicator: TA1538, Metabolic Activation: NONE, Method: STANDARD PLATE): inactive; negative
mutagenic call (Test System: AMES SALMONELLA TYPHIMURIUM, Strain/Indicator: TA1538, Metabolic Activation: RAT, LIVER, S-9, AROCLOR 1254, Method: STANDARD PLATE): inactive; negative
mutagenic call (Test System: AMES SALMONELLA TYPHIMURIUM, Strain/Indicator: TA1538, Metabolic Activation: RAT, LIVER, S-9, SODIUM PHENOBARBITAL, Method: STANDARD PLATE): inactive; negative
mutagenic call (Test System: Mouse lymphoma, Strain/Indicator: L5178Y (tk+/tk-), Metabolic Activation: Rat, Liver, S-9, Aroclor 1254, Method: Suspension/plate): active; positive

Cc1cc(C)c2c3c(cc4ccccc42)-c2ccccc2-c13
mutagenic call (Test System: AMES SALMONELLA TYPHIMURIUM, Strain/Indicator: TA100, Metabolic Activation: RAT, LIVER, S-9, AROCLOR 1254): active; positive

O=NN(CCO)CC(=O)O
mutagenic call [1]: active; positive

O=[N+]([O-])c1ccc2ccc3c4c(cc5ccc1c2c53)C=C[C@H](O)[C@H]4O
mutagenic call (Test System: AMES SALMONELLA TYPHIMURIUM, Strain/Indicator: TA98, Metabolic Activation: NONE): active; positive
mutagenic call (Test System: AMES SALMONELLA TYPHIMURIUM, Strain/Indicator: TA98, Metabolic Activation: RAT, LIVER, S-9, AROCLOR 1254): active; positive
mutagenic call (Test System: CHINESE HAMSTER OVARY, Strain/Indicator: CHO-K1-BH4 (HGPRT), Metabolic Activation: NONE): inactive; negative
mutagenic call (Test System: CHINESE HAMSTER OVARY, Strain/Indicator: CHO-K1-BH4 (HGPRT), Metabolic Activation: RAT, LIVER, S-9, 3-METHYLCHOLANTHRENE): inactive; negative

CNc1c(C)cc2ncccc2c1N
mutagenic call (Test System: AMES SALMONELLA TYPHIMURIUM, Strain/Indicator: TA98, Metabolic Activation: NONE, Method: PREINCUBATION): inactive; negative
mutagenic call (Test System: AMES SALMONELLA TYPHIMURIUM, Strain/Indicator: TA98, Metabolic Activation: RAT, LIVER, S-9, AROCLOR 1254, Method: PREINCUBATION): inactive; negative
mutagenic call [1]: inactive; negative
mutagenic call (Test System: AMES SALMONELLA TYPHIMURIUM, Strain/Indicator: TA100, Metabolic Activation: RAT, LIVER, S-9, AROCLOR 1254, Method: PREINCUBATION): inactive; negative

Cc1cccc2c1ccc1c3ccccc3ccc21
mutagenic call (Test System: AMES SALMONELLA TYPHIMURIUM, Strain/Indicator: TA100, Metabolic Activation: RAT, LIVER, MICROSOMES, 1-METHYLCHRYSENE, Method: STANDARD PLATE): inactive; negative
mutagenic call (Test System: AMES SALMONELLA TYPHIMURIUM, Strain/Indicator: TA100, Metabolic Activation: RAT, LIVER, MICROSOMES, AROCLOR 1254, Method: STANDARD PLATE): inactive; negative
mutagenic call (Test System: AMES SALMONELLA TYPHIMURIUM, Strain/Indicator: TA100, Metabolic Activation: RAT, LIVER, MICROSOMES, Method: STANDARD PLATE): inactive; negative
